In PMC6895180 (Nature Communications, 2019):
Values joined by “and” are separate entries in the source; they are usually repeats but may differ in a detail not shown here. Equal entries are not always repeated.

Columns and labels:
[1] = system: T. b. brucei AnTAR1.1 PPYRE9; test: Mouse model of stage 2 HAT (BLI, parasitaemia, SL-RNA qPCR); assay type: in vivo; settings: for RLU data, individual mice: 25 mg/kg SID; for BLI of the head region, RLU data: individual animals
Description: […] Treatment was initiated at 21 dpi. […] Mice were injected i.p. with […] of D-luciferin and anaesthetised using isoflurane. The luminescent signal was acquired from both the dorsal and ventral side of the animals. […] Animals subjected to the different treatment schemes (from 4 wpi) were additionally imaged over a 5 min exposure time for enhanced sensitivity. […] Tissues were weighed and RNA was extracted using the RNeasy Plus Mini Kit (Qiagen) according to the manufacturer’s recommendations. […] A list of primers used is provided in the Supplementary Methods section of the Supplementary Information. BLI images from the IVIS Spectrum In Vivo Imaging System (Perkin Elmer) were analysed using LivingImage v4.3.1. SoftWoRx suite 2.0 for microscopy (image deconvolution), then processing using the Fiji software.

T. b. brucei BS221 = test: Susceptibility assay, BS221 cells; assay type: cell-based, Trypanosoma brucei brucei; settings: for IC50: single determinations
Description: Susceptibility assays with NY-SM[51], BS221[48] and TbAT1-KO[48] (derived from BS221) cells were performed using 10 concentrations of a 4-fold compound dilution series starting at 64 µM. Parasites were seeded at 4 × 10^3 parasites per well and exposed to drug compound for 72 h, after which resazurin (final concentration of 10 µg mL^−1) was added to the plates. Fluorescence intensities were determined after 6 h.

T. brucei NY-SM cells = test: Cell cycle analysis by flow cytometry; assay type: cell-based, Trypanosoma brucei
Description: After 24 h, the cells were harvested and washed with PBS before staining with Hoechst 33342 at 5 µg mL^−1 for 25 min at 37 °C. Cells were analysed on a MACSQuant flow cytometer (Miltenyi Biotec) using the FlowJo X software package.

[2] = oral 6.25 mg kg^−1 s.i.d. for 5 days
[3] = oral 12.5 mg kg^−1 s.i.d. for 5 days
[4] = oral 25 mg kg^−1 s.i.d. for 5 days

## Nc1ncnc2c1ccn2[C@@H]1O[C@H](CO)C[C@H]1O [Compound 9, 3’-deoxytubercidin]
[1]; 7 wpi
  RLU data, individual mice: 98810 RLU and 105800 RLU and 87010 RLU
  BLI of the head region, RLU data: 99500 RLU and 92000 RLU
[1]; 8 wpi
  RLU data, individual mice: 114800 RLU and 132100 RLU and 110100 RLU
  BLI of the head region, RLU data: 107000 RLU and 96700 RLU
[1]; 9 wpi
  RLU data, individual mice: 104700 RLU and 110500 RLU and 91280 RLU
  BLI of the head region, RLU data: 90800 RLU and 104000 RLU
[1]; 11 wpi
  RLU data, individual mice: 73650 RLU and 88470 RLU and 81640 RLU
[1]; 12 wpi
  RLU data, individual mice: 90290 RLU and 88590 RLU and 87820 RLU
[1]; 14 wpi
  RLU data, individual mice: 78620 RLU and 86010 RLU and 72810 RLU
[1]; 3 wpi (start of treatment, 21 dpi)
  BLI of the head region, RLU data: 48700000 RLU and 33400000 RLU
[1]; 4 wpi
  BLI of the head region, RLU data: 98400 RLU and 114000 RLU
[1]; 5 wpi
  BLI of the head region, RLU data: 100000 RLU and 105000 RLU
[1]; 6 wpi
  BLI of the head region, RLU data: 109000 RLU and 110000 RLU
[1]; mouse, in vivo
  BLI follow-up of surviving mice up to 14 wpi: did not reveal any signs of relapse
[1]; [2]
  bioluminescent imaging (BLI): total clearance in all organs including the CNS
  blood parasitaemia up to 9 wpi: negative blood parasitaemia
[1]; [3]
  bioluminescent imaging (BLI): total clearance in all organs including the CNS
  blood parasitaemia up to 9 wpi: negative blood parasitaemia
[1]; oral 25 mg kg^−1 b.i.d. for 5 days
  bioluminescent imaging (BLI): total clearance of all organs, including the CNS
[1]; oral 25 mg kg^−1 b.i.d. for 5 days from 21 dpi
  blood parasitaemia and survival at 9 wpi: negative blood parasitaemia and survived the pre-set endpoint
[1]; [4]
  bioluminescent imaging (BLI): total clearance in all organs including the CNS
  blood parasitaemia up to 9 wpi: negative blood parasitaemia
[1]; tissues collected at 121 dpi
  parasite burdens in brain, spleen and fat by SL-RNA qPCR: complete absence of parasite burdens
[1]; to levels similar to a non-infected control mouse
  luminescent signal in the head region: rapid decline of the signal
T. b. brucei BS221; BS221, 0.015625 µM
  Inhibition (%): 98% and 95%
T. b. brucei BS221; BS221, 0.25 µM
  Inhibition (%): 98%
T. b. brucei BS221; BS221, 1 µM
  Inhibition (%): 98%
T. b. brucei BS221; BS221, 4 µM
  Inhibition (%): 98%
T. b. brucei BS221; BS221, 16 µM
  Inhibition (%): 98%
T. b. brucei BS221; Trypanosoma brucei, BS221, 0.000244141 µM
  inhibition at 0.000244141 µM: 0%
T. b. brucei BS221; Trypanosoma brucei, BS221, 0.000976563 µM
  inhibition at 0.000976563 µM: 0%
T. b. brucei BS221; Trypanosoma brucei, BS221, 0.015625 µM
  inhibition at 0.015625 µM: 97%
T. b. brucei BS221; Trypanosoma brucei, BS221, 0.0625 µM
  inhibition at 0.0625 µM: 99%
T. b. brucei BS221; Trypanosoma brucei, BS221, 0.25 µM
  inhibition at 0.25 µM: 99%
T. b. brucei BS221; Trypanosoma brucei, BS221, 1 µM
  inhibition at 1 µM: 99%
T. b. brucei BS221; Trypanosoma brucei, BS221, 4 µM
  inhibition at 4 µM: 100%
T. b. brucei BS221; Trypanosoma brucei, BS221, 16 µM
  inhibition at 16 µM: 99%
T. b. brucei BS221; Trypanosoma brucei, BS221, 64 µM
  inhibition at 64 µM: 99%
T. b. brucei BS221; Trypanosoma brucei
  IC50: 6.8 nM
T. b. brucei BS221; Trypanosoma brucei, BS221, mean and SEM, n = 2, read-out: EC50, parental line of AT1-KO
  EC50: 6.4 ± 0.4 nM
T. b. brucei BS221
  IC50: 6.1 nM and 5.4 nM and 7.3 nM
T. brucei NY-SM cells; 1.4 nM
  # cells 2N: 18946 and 19862
  # cells 4N: 4825 and 4846
  # cells S: 16441 and 16011
  % of cells 2N: 44.3% and 46.2%
  % of cells 4N: 11.3%
  % of cells S: 38.5% and 37.2%
T. brucei NY-SM cells; 3.5 nM
  # cells 2N: 19884 and 19251
  # cells 4N: 4669 and 4555
  # cells S: 15056 and 15140
  % of cells 2N: 47.3% and 46.7%
  % of cells 4N: 11.1%
  % of cells S: 35.9% and 36.8%
T. brucei NY-SM cells; 7 nM
  # cells 2N: 18100 and 17699
  # cells 4N: 3787 and 3626
  # cells S: 10717 and 10604
  % of cells 2N: 51.1% and 50%
  % of cells 4N: 10.7% and 10.2%
  % of cells S: 30.2% and 29.9%
T. brucei NY-SM cells; 24 h, various concentrations
  cell cycle analysis: impact on DNA synthesis: no major impact on DNA synthesis
